Results from US10513709B2, “Somatic cell nuclear transfer methods” (priority 2013, dated 2019).

Tests used:
enucleated human oocytes = experiment: Activation and polar body extrusion after transfer of a mitotic somatic genome; type: cell-based
Protocol: We next sought to determine the timing and molecular mechanism of these chromosomal abnormalities. We reasoned that if the removal of the oocyte spindle removed essential components, then these defects should be apparent at the second meiotic division. We removed the oocyte spindle-chromosome complex, and transferred the mitotic genome of a somatic cell that had been collected upon treatment with nocodazole and were kept on ice prior to transfer (FIG. 12A). Remarkably, within 1-2 hours post transfer, birefringent spindles were assembled in oocytes and chromosomes were aligned on the metaphase plate (FIGS. 12A, 12B, 12C). Upon artificial activation using a calcium ionophore and puromycin, 16/19 oocytes segregated somatic cell chromatin into a polar body and formed a single pronucleus in the activated oocyte (FIG. 12F-I). And like upon segregation of oocyte chromatin, a midbody formed and the chromosome passenger complex component survivin localized to the midbody (FIG. 12E). To examine the accuracy of chromosome segregation, (pseudo-) polar bodies were biopsied and the karyotype determined using nucleotide polymorphism arrays. […] However, when we analyzed the karyotype of blastomeres using nucleotide arrays, we found a large number of karyotypic abnormalities (FIG. 12I-L). […]

human oocytes = experiment: Development of human somatic cell nuclear transfer oocytes beyond the cleavage stage; type: cell-based
Protocol: Oocytes were enucleated using microtubule birefringence (Oosight) as described previously by Noggle et al., 2011. Nuclear transfer was performed by fusion of somatic cells to oocytes using inactivated Sendai virus diluted 1:10 to 1:20 in suspension medium. Fusion was confirmed visually. 1-3 hours post fusion, oocytes were activated using 3 μM ionomycin in Global total for 5 minutes at 37 degrees celsius, followed by culture in 10 μM puromycin, 2 mM 6-DMAP, as well as the histone deacetylase (HDAC) inhibitors scriptaid and nch51 for 4 to 4.5 hours. Activated constructs were cultured in HDAC inhibitor for an additional 10-16 hours, followed by culture in Global total only. Culture was performed in a MINC incubator fed with gas containing 6% CO2, 5% oxygen and 89% nitrogen. Calcium-free medium was used for some of the manipulations resulting in nuclear transfer ES cells.
For some of the experiments described above additional modifications were introduced as described in Tachibana et al., 2013. Caffeine at a 1 mM concentration was added to the incubation medium during enucleation and oocyte fusion. Oocytes were activated using 2-4 pulses of 50 μs width at 2.7 kV/cm in mannitol containing fusion medium using an LF201 pulser (Nepagene), followed by 4 hours of culture in 2 mM 6-DMAP. Activated constructs were cultured in Global total containing 10% FBS and TSA for 12 hours, followed by culture to the blastocysts stage in medium containing 10% FBS.
The derivation of nuclear transfer ES cell lines from BJ fibroblasts at passage 11 was performed using nuclear transfer 30 min prior to the removal of the oocyte genome in the presence of 1 mM caffeine. Derivation of the adult cell NT-ES cell line was performed using somatic cells at passage 8, from a subject with T1D (ID-1018). Oocytes were transported in GMOPSplus containing 1 mM caffeine. Upon completion of the manipulation, oocytes were incubated for 45 min-1 h in calcium-free MCZB, then placed in calcium containing medium for 10 min prior to activation and culture as described above. Oocyte activation was performed within 2 hours post transfer using 4 electrical pulses, followed by incubation in medium containing HDAC inhibitors scriptaid and nch51, in addition to 10 μg/ml puromycin and 2 mM 6-DMAP for 4 hours, and thereafter, medium containing HDAC inhibitor for 15 hours. Culture was performed in a Heracell 150i incubator containing 5% CO2 at 37° C., in Global medium (IVFonline LGGG-050) containing 10% fetal bovine serum. ES cell derivation was conducted in medium containing DMEM/F12 supplemented with 10% KO-SR and 10% FBS, Rock inhibitor Y-27632, thiazovivin, non-essential amino acids, 10 ng/ml bFGF, Glutamax, and beta mercaptoethanol (all reagents from Life Technologies). Upon attachment, trophectoderm cells were ablated using laser pulses using a Lykos laser (Hamilton Thorne). Outgrowths were apparent within 10 days of plating, and were picked when colonies reached a size of about 1 mm in diameter. Passaging was done enzymatically using TrpLE (Life Technologies) and standard ES cell medium (substituting FBS with KO-SR and DMEM/F12 with KO-DMEM) using Rock inhibitor Y-27632 for the first day after plating.

oocytes = conditions: oocyte activation with puromycin versus 6-dmap; cited from earlier work
enucleated mouse oocytes = experiment: Chromosome segregation at the first mitosis after nuclear transfer; type: cell-based
Description: To further investigate the mechanism of genomic instability after somatic cell nuclear transfer, we transferred genomes of somatic and embryonic mouse cells into enucleated mouse oocytes. As a control for our manipulations, we transplanted oocyte genomes from one MII oocyte to another. We first quantified the number of abnormal anaphase figures in unmanipulated oocytes, including bridges, fragments, and missegregating chromosomes. Abnormalities in parthenotes were few, or less than 5 percent at anaphase of the second meiosis and the first mitosis (FIG. 13A). […] Upon transfer of mitotic fibroblast or ES cell genomes into MII oocytes, the frequency of these abnormalities remained unaltered, or 6% and 6.9%. […] Abnormal anaphase figures were further increased when using interphase genomes of either cumulus cells or T cells.
As different cell types are known to differ in their gene expression pattern, we first determined whether gene expression during the first cell cycle was required for a normal chromosome segregation at the first embryonic mitosis. […] As cell-type specific gene expression appeared to be irrelevant to chromosome segregation at the first mitosis, we investigated whether other cell-type specific properties of the genome were of importance. It appeared conceivable that for normal chromosome segregation, the prior duplication of the genome at interphase must also be normal. To distinguish whether the chromosome segregation we observed were due to abnormal spindle attachment to chromosomes or due to structural deficiencies that can arise during DNA replication, we stained anaphases with antibodies recognizing centromeres. […]
To determine whether other parameters known to affect the developmental efficiency after somatic cell nuclear transfer affected the fidelity of segregation at the first mitosis, we investigated the role of the nuclear structure. […] We transferred somatic nuclei within the first hour post activation, and analyzed chromosome segregation at the first mitosis. […]

[1] = enucleated oocytes, agent used at activation / first 17 hours of embryo culture

COc1ccc(C[C@H](N)C(=O)N[C@H]2[C@@H](O)[C@H](n3cnc4c(N(C)C)ncnc43)O[C@@H]2CO)cc1 [puromycin]
oocytes segregating somatic chromatin into a polar body and forming a single pronucleus (enucleated human oocytes; activation with a calcium ionophore and puromycin): 16/19
oocyte activation shown by polar body extrusion (enucleated human oocytes; puromycin for 4 hours without meiotic kinase inhibitor, M-phase somatic genome): efficient polar body extrusion
development after somatic cell nuclear transfer (human oocytes; [1]): development still arrested at cleavage stages
development after somatic cell nuclear transfer (human oocytes; oocyte genome not removed, puromycin for oocyte activation): efficient development to the blastocyst stage
efficiency of parthenogenesis (oocytes): more efficient

Cn1c(=O)c2c(ncn2C)n(C)c1=O [caffeine]
efficiency and quality of blastocysts (human oocytes; caffeine also during oocyte transport, calcium omitted from manipulation medium): most efficient and high quality blastocyts
blastocyst development (human oocytes; electrical pulse for activation and caffeine during oocyte manipulation): 10%

CC[C@H](C)[C@@H]1NC(=O)CNC(=O)[C@@H]2Cc3c([nH]c4cc(O)ccc34)[S+]([O-])C[C@@H](NC(=O)CNC1=O)C(=O)N[C@@H](CC(N)=O)C(=O)N1C[C@H](O)C[C@H]1C(=O)N[C@@H]([C@@H](C)[C@@H](O)CO)C(=O)N2 (stereo partly drawn) [alpha amanitin]
frequency of normal mitotic figures (enucleated mouse oocytes; added to culture medium during first cell cycle): did not significantly increase

O=C(CCCCCN1C(=O)c2cccc3cccc(c23)C1=O)NO [scriptaid, 6-(1,3-Dioxo-1H,3H-benzo[de]isoquinolin-2-yl)-hexanoic acid hydroxyamide]
development after somatic cell nuclear transfer (human oocytes; [1]): development to the morula and blastocyst stage at a low frequency
frequency of chromosome segregation errors (enucleated mouse oocytes; first mitosis): decreased the frequency of chromosome segregation errors

CN(C)c1ncnc2nc[nH]c12 [6-dmap, 6-(dimethylamino)purine]
dividing embryos severely abnormal (enucleated mouse oocytes; somatic nuclei transferred within first hour after activation and kinase inhibition with 6-dmap): 90%
